These results are taken from ChEMBL document CHEMBL1201862, “PubChem BioAssay data set” (2004).

Test systems include SNB-75; TK-10; UACC-257; SNB-19; K562; HT-29; OVCAR-4; SW-620; RXF 393; HCT-116; OVCAR-8; A498; A549; PC-3; HOP-62; IGROV-1; Malme-3M; BT-549; NCI-H460; NCI/ADR-RES.
Common to all, as to assay: growth of human tumour cells (NCI), 48 h

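Protocol summary: plate cells (96-well), add compound at 5 concentrations, incubate 48 h, interpolate endpoints linearly. GI50 is the concentration that inhibits growth by half.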 Calls of active or inactive are those of the source. No stated cut-off is given here; in the data, active = GI50 up to about 1.1 µM and inactive = higher. A value given as a limit tells only on which side of the number the result lay.

`O=C1C=C(c2ccccc2)OC1C1Sc2ccccc2NC1=O` (stereo not given): the GI50 is 5.11 µM (inactive) with SNB-75; 9.23 µM (inactive) in the assay on TK-10; 7.6 µM (inactive) in the assay with UACC-257; 4.08 µM (inactive) in the assay on SNB-19; 3.3 µM (inactive) in the assay with K562; 11.5 µM (inactive) in the assay on HT-29. Besides, the GI50 was 18.7 µM (inactive) in the assay on OVCAR-4; 9.23 µM (inactive) with SW-620; 14 µM (inactive) with RXF 393; 4.5 µM (inactive) in the assay with HCT-116; 9.31 µM (inactive) in the assay with OVCAR-8; 7.89 µM (inactive) in the assay with A498. The GI50 in the assay on A549 is 3.06 µM (inactive); with PC-3, 10.9 µM (inactive); in the assay on HOP-62 it was 1.04 µM (active); in the assay with IGROV-1, 11.4 µM (inactive); in the assay on Malme-3M, 24.3 µM (inactive); in the assay on BT-549, 14.6 µM (inactive). The GI50 with NCI-H460 was 2.74 µM (inactive); with NCI/ADR-RES it was 34.5 µM (inactive).

For the molecule `Cc1ccc(S(=O)(=O)Nn2c(O)c(C#N)c(-c3ccc(Cl)cc3)c(C#N)c2=O)cc1`, the GI50 in the assay on SNB-75, in the assay with TK-10, in the assay with UACC-257, in the assay on SNB-19, in the assay with K562 and with HT-29 was > 100 µM (inactive) throughout. In addition, the GI50 with OVCAR-4, in the assay with SW-620, with RXF 393, in the assay with HCT-116, with OVCAR-8 and with A498 was > 100 µM (inactive) throughout. Further, the GI50 in the assay on A549, with PC-3, with HOP-62, with IGROV-1, in the assay with Malme-3M and with BT-549 was > 100 µM (inactive) in each case. Besides, the GI50 in the assay on NCI-H460 and with NCI/ADR-RES was > 100 µM (inactive) each time.
